Reference: patent US20100004166A1, “Endothelin and Endothelin Receptor Agonists in the Treatment of Metabolic Diseases” (priority 2007, published 2010)
Entries after “also recorded” stand apart in the source; their conditions may differ. Where a SMILES comes first, the peptide text is derived from it. Bridges are numbered along the chain shown (N, C = ends). Where no end group is shown, it is not given here.

System: not listed separately
Experiment: Reduction of food intake in fasted mice after i.p. injection of peptide
Type: in vivo, NIH/Swiss mice
Conditions: fasted mice, i.p.
Text: In yet another embodiment, the ET receptor agonist is adenoregulin. See, e.g., Donly et al., Proc. Natl. Acad. Sci. USA 89:10960-963 (1992); Amiche et al., Biochem. Biophys. Res. Comm. 191:983-90 (1993). Known sequences for adenoregulin include Genbank sequences X70278 and X72387. Originally isolated from the skin of the frog Phyllomedusa bicolor, adenoregulin belongs to the family of dermaseptins, a family of antimicrobial peptides. See, e.g., Amiche et al., J. Biol. Chem. 269:17847-52 (1994); Zhou et al., Biotechnol. Lett. 27:725-30 (2005).
Materials & Methods: NIH/Swiss mice were fasted approximately 17 hours prior to initiation of the experiment. Peptides were injected intraperitoneally (i.p.) at time zero using doses as indicated. All mice received an intraperitoneal injection (200 μl) of either vehicle or compounds at doses indicated and were immediately presented with a pre-weighed food pellet. The food pellet was weighed at 30-minute, 1-hr, and 2-hr intervals after presentation to determine the amount of food eaten. Each point reflects n=4 for mice receiving an endothelin or endothelin agonist or n=3 for mice receiving vehicle.
Food intake values reflect, at each time point, effect of test sample on food intake is expressed as % change relative to vehicle using the formula provided below.
% basal=−100*[1−(food intake of treatment group/food intake of vehicle group)].
(§1) Significant test sample effects were identified by ANOVA (p<0.05). Where a significant difference exists, test means were compared to the control mean using Dunnett's test. One-way ANOVA with Dunnett's post test was performed using GraphPad Prism® version 3.01 for Windows, GraphPad Software, San Diego, Calif. USA.

| Compound | observable negative effects |
| --- | --- |
| CC[C@H](C)[C@H](NC(=O)[C@H](CC(=O)O)NC(=O)[C@H](CC(C)C)NC(=O)[C@H](Cc1cnc[nH]1)NC(=O)[C@@H]1CSSC[C@H](N)C(=O)N[C@@H](CO)C(=O)N[C@H]2CSSC[C@H](NC(=O)[C@H](CCC(=O)O)NC(=O)[C@H](CCCCN)NC(=O)[C@H](CC(=O)O)NC(=O)[C@H](CCSC)NC(=O)[C@H](CC(C)C)NC(=O)[C@H](CO)NC(=O)[C@H](CO)NC2=O)C(=O)N[C@@H](C(C)C)C(=O)N[C@@H](Cc2ccc(O)cc2)C(=O)N[C@@H](Cc2ccccc2)C(=O)N1)C(=O)N[C@H](C(=O)N[C@@H](Cc1c[nH]c2ccccc12)C(=O)O)[C@@H](C)CC [ET-1, reference compound] | without observable negative effects |
| CC[C@H](C)[C@H](NC(=O)[C@H](CC(=O)O)NC(=O)[C@H](CC(C)C)NC(=O)[C@H](Cc1cnc[nH]1)NC(=O)[C@@H]1CSSC[C@H](N)C(=O)N[C@@H](CO)C(=O)N[C@H]2CSSC[C@H](NC(=O)[C@H](CCC(=O)O)NC(=O)[C@H](CCCCN)NC(=O)[C@H](CC(=O)O)NC(=O)[C@H](CC(C)C)NC(=O)[C@H](Cc3c[nH]c4ccccc34)NC(=O)[C@H](CO)NC(=O)[C@H](CO)NC2=O)C(=O)N[C@@H](C(C)C)C(=O)N[C@@H](Cc2ccc(O)cc2)C(=O)N[C@@H](Cc2ccccc2)C(=O)N1)C(=O)N[C@H](C(=O)N[C@@H](Cc1c[nH]c2ccccc12)C(=O)O)[C@@H](C)CC [ET-2, reference compound] (H-CSCSSWLDKECVYFCHLDIIW-OH; disulfide 1-15, 3-11) | without observable negative effects |
| CC[C@H](C)[C@H](NC(=O)[C@H](CC(=O)O)NC(=O)[C@H](CC(C)C)NC(=O)[C@H](Cc1c[nH]cn1)NC(=O)[C@@H]1CSSC[C@H](N)C(=O)N[C@@H]([C@@H](C)O)C(=O)N[C@H]2CSSC[C@H](NC(=O)[C@H](CCC(=O)O)NC(=O)[C@H](CCCCN)NC(=O)[C@H](CC(=O)O)NC(=O)[C@H](CCCCN)NC(=O)[C@H](Cc3ccc(O)cc3)NC(=O)[C@H]([C@@H](C)O)NC(=O)[C@H](Cc3ccccc3)NC2=O)C(=O)N[C@@H](C(C)C)C(=O)N[C@@H](Cc2ccc(O)cc2)C(=O)N[C@@H](Cc2ccc(O)cc2)C(=O)N1)C(=O)N[C@H](C(=O)N[C@@H](Cc1c[nH]c2ccccc12)C(=O)O)[C@@H](C)CC [ET-3, reference compound] | without observable negative effects |

Same assay, conditions: fasted mice, i.p., 30 minutes

| Compound | food intake at 30 minutes |
| --- | --- |
| N-Succinyl-[Glu^9, Ala^11,15]-Endothelin 1 fragment 8-21 [IRL1620, reference compound] | reduced food intake |

Same assay, conditions: fasted mice, i.p., 60 minutes

| Compound | food intake at 60 minutes |
| --- | --- |
| N-Succinyl-[Glu^9, Ala^11,15]-Endothelin 1 fragment 8-21 [IRL1620, reference compound] | reduced food intake |

Same assay, conditions: fasted mice, i.p., 120 minutes

| Compound | food intake at 120 minutes |
| --- | --- |
| N-Succinyl-[Glu^9, Ala^11,15]-Endothelin 1 fragment 8-21 [IRL1620, reference compound] | no effect |

Same assay, conditions: fasted mice, peripheral (i.p.) administration, all time points examined (30, 60, 120 min)

| Compound | reduction in food intake |
| --- | --- |
| c(CTCNDMTDEECLNFCHQDVIW)-OH [Sarafotoxin S6c, reference compound] | dose-dependent reduction in food intake |

Same assay, conditions: food intake (FI) at 120 min; dose not given

| Compound | % Inhibition of FI at 120 mi [%] |
| --- | --- |
| 33 (GLWSKIKEVGKEAAKAAAKAAGKAALGAVSEAV-NH2) [compound 33] | 77.6 |
| 35 (GLWSKIKEVGKEAAKAAAKAAGKAALGAVSEA-NH2) [compound 35] | 28.9 |
| 36 (GLWSKIKEVGKEAAKAAAKAAGKAALGAVSEAF-NH2) [compound 36] | 92.0 |
| 37 (GLWSKIKEVGKEAAKAAAKAAGKAALGAVSEAL-NH2) [compound 37] | 79.0 |
| 38 (GLWSKIKEVGKEAAKAAAKAAGKAALGAVSEAI-NH2) [compound 38] | 78.0 |
| 39 (GLWSKIKEVGKEAAKAAAKAAGKAALGAVSEAY-NH2) [compound 39] | 61.0 |
| 40 (GLWSKIKEVGKEAAKAAAKAAGKAALGAVSEAW-NH2) [compound 40] | 61.0 |
| 41 (GLWSKIKEVGKEAAKAAAKAAGKAALGAVSEAA-NH2) [compound 41] | 54.0 |
| 42 (GLWSKIKEVGKEAAKAAAKAAGKAALGAVSEAK-NH2) [compound 42] | 48.0 |
| 43 (GLWSKIKEVGKEAAKAAAKAAGKAALGAVSEAP-NH2) [compound 43] | 37.0 |
| 44 (GLWSKIKEVGKEAAKAAAKAAGKAALGAVSEAR-NH2) [compound 44] | 34.0 |
| 45 (GLWSKIKEVGKEAAKAAAKAAGKAALGAVSEAH-NH2) [compound 45] | 23.0 |
| 46 (GLWSKIKEVGKEAAKAAAKAAGKAALGAVSEA-NH2) [compound 46] | 17.0 |
| 47 (GLWSKIKEVGKEAAKAAAKAAGKAALGAVSEAVGEQ-OH) [compound 47] | 50.0 |
| 49 (GLWSKIKEVGKEAAKAAAKAAGKAALGAVSEA-NH2) [compound 49] | 13.5 |
| 50 (GLWSAIKEVGKEAAKAAAKAAGKAALGAVSEAV-NH2) [compound 50] | 22.3 |
| 51 (GLASKIKEVGKEAAKAAAKAAGKAALGAVSEAV-NH2) [compound 51] | 25.8 |
| 52 (ALWSKIKEVGKEAAKAAAKAAGKAALGAVSEAV-NH2) [compound 52] | 32.3 |
| 53 (GLWSKIKEVGKEAAKAAAKAAGKAALGAASEAV-NH2) [compound 53] | 33.6 |
| 54 (GAWSKIKEVGKEAAKAAAKAAGKAALGAVSEAV-NH2) [compound 54] | 37.3 |
| 55 (GLWSKIKEVGKEAAKAAAKAAGKAALGAVSEAA-NH2) [compound 55] | 54.0 |
| 56 (GLWAKIKEVGKEAAKAAAKAAGKAALGAVSEAV-NH2) [compound 56] | 71.7 |
| 57 (GLWSKIKEVGKEAAKAAAKAAGKAALGAVAEAV-NH2) [compound 57] | 74.8 |
| 58 (GLWSKIKEVGKEAAKAAAKAAGKAALGAVSAAV-NH2) [compound 58] | 78.9 |
| 59 (ALWKTMLKKLGTMALHAGKAALGAAADTISQGTQ-OH) [compound 59] | 58.0 |
| 60 (ALWKTLLKKVGKVAGKAVLNAVTNMANQNEQ; not fully specified (C-terminus); printed as ALWKTLLKKVGKVAGKAVLNAVTNMANQNEQ-OH) [compound 60] | 53.0 |
| 61 (ALWMTLLKKVLKAAAKALNAVLVGANA-OH) [compound 61] | 35.0 |
| 62 (ALWKTLLKKVLKA-NH2) [compound 62] | 28.2 |
| 63 (GMWSKIKNAGKAAAKASKKAAGKAALGAVSEALGEQ-OH) [compound 63] | 50.0 |
| 64 (GMWGSLLKGVATVVKHVLPHALSSQQS-OH) [compound 64] | 22.0 |

Same assay, conditions: rodents; doses estimated to be less than those exerting antibiotic effects

| Compound | food intake |
| --- | --- |
| GLWSKIKEVGKEAAKAAAKAAGKAALGAVSEAV-NH2 [SEQ ID NO 33] | inhibited food intake |

System: not listed separately
Experiment: Body weight and body fat in diet induced obese (DIO) mice, continuous s.c. osmotic pump infusion
Type: in vivo
Conditions: DIO mice on high fat diet, 300 nmol/kg/d, infused continuously 2-4 weeks (28 days); listed as adenoregulin
Method: Materials & Methods: Diet induced obese (DIO) mice were employed. Obesity was induced by feeding a pelleted high-fat diet (58% of calories, #D12331, Research Diets, New Brunswick, N.J.) starting at 4 wk of age (20) for 6 wk (4 wk for the long-term study) prior to treatment. The mice then remained on this diet in powdered form throughout the treatment period unless otherwise noted. All animals were housed under a 12 hr:12 hr light-dark cycle at 21-23° C., and allowed ad libitum access to food pre- and post-treatment. […] (20 nmol/kg/d), or adenoregulin [SEQ ID NO: 33] (300 nmol/kg/d) were administered to DIO mice by Alzet® s.c. osmotic pumps. Mice were fed pelleted high-fat diet, and body weights and food intake were recorded weekly.
Body weight (BWt), at each time point, reflects the effect of test sample on BWt when expressed as % change relative to vehicle treated. For a treatment group:
% BWt loss=100*[(mean BWt change vehicle treated)−(mean BWt change treated)/mean BWt at day 0]
[…]
as §1, with “Diego” for “Diego,”, “Calif.” for “Calif. USA.”

| Compound | body weight |
| --- | --- |
| GLWSKIKEVGKEAAKAAAKAAGKAALGAVSEAV-NH2 [SEQ ID NO 33] | sustained weight reducing effect; also recorded: reduction of body weight |

Same assay, conditions: DIO mice on high fat diet, 300 nmol/kg/d, vs vehicle on high-fat or low-fat diet; listed as adenoregulin

| Compound | body fat |
| --- | --- |
| GLWSKIKEVGKEAAKAAAKAAGKAALGAVSEAV-NH2 [SEQ ID NO 33] | reduction in body fat; also recorded: reduction of body fat |

Same assay, conditions: DIO mice, 20 nmol/kg/d continuously infused

| Compound | sickness behavior |
| --- | --- |
| CC[C@H](C)[C@H](NC(=O)[C@H](CC(=O)O)NC(=O)[C@H](CC(C)C)NC(=O)[C@H](Cc1cnc[nH]1)NC(=O)[C@@H]1CSSC[C@H](N)C(=O)N[C@@H](CO)C(=O)N[C@H]2CSSC[C@H](NC(=O)[C@H](CCC(=O)O)NC(=O)[C@H](CCCCN)NC(=O)[C@H](CC(=O)O)NC(=O)[C@H](CCSC)NC(=O)[C@H](CC(C)C)NC(=O)[C@H](CO)NC(=O)[C@H](CO)NC2=O)C(=O)N[C@@H](C(C)C)C(=O)N[C@@H](Cc2ccc(O)cc2)C(=O)N[C@@H](Cc2ccccc2)C(=O)N1)C(=O)N[C@H](C(=O)N[C@@H](Cc1c[nH]c2ccccc12)C(=O)O)[C@@H](C)CC [ET-1, reference compound] | without observable sickness behavior |

Molecular target: T1, ETA (Homo sapiens, UniProt P25101)
T1 sequence (P25101 21-427): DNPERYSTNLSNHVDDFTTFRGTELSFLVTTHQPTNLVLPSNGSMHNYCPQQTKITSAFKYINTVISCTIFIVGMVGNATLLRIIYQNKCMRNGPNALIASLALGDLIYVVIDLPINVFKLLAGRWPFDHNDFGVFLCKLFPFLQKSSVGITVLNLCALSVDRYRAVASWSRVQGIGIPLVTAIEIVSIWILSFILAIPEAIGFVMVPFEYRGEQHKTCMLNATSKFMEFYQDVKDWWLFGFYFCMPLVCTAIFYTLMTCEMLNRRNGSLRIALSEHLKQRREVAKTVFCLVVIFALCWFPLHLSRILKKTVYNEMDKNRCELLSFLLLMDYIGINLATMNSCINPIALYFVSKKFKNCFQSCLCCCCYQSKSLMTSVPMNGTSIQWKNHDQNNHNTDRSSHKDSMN
Experiment: not given
Conditions: read-out: affinity for ETA; cited from earlier work

| Compound | Kd [nM] |
| --- | --- |
| CC[C@H](C)[C@H](NC(=O)[C@H](CC(=O)O)NC(=O)[C@H](CC(C)C)NC(=O)[C@H](Cc1c[nH]cn1)NC(=O)[C@@H]1CSSC[C@H](N)C(=O)N[C@@H]([C@@H](C)O)C(=O)N[C@H]2CSSC[C@H](NC(=O)[C@H](CCC(=O)O)NC(=O)[C@H](CCCCN)NC(=O)[C@H](CC(=O)O)NC(=O)[C@H](CCCCN)NC(=O)[C@H](Cc3ccc(O)cc3)NC(=O)[C@H]([C@@H](C)O)NC(=O)[C@H](Cc3ccccc3)NC2=O)C(=O)N[C@@H](C(C)C)C(=O)N[C@@H](Cc2ccc(O)cc2)C(=O)N[C@@H](Cc2ccc(O)cc2)C(=O)N1)C(=O)N[C@H](C(=O)N[C@@H](Cc1c[nH]c2ccccc12)C(=O)O)[C@@H](C)CC [ET-3, reference compound] | 6.5 |
